According to ChEMBL document CHEMBL5108051, “Improving the Antimicrobial Performance of Amphiphilic Cationic Antimicrobial Peptides Using Glutamic Acid Full-Scan and Positive Charge Compensation Strategies” (J Med Chem, 2022):
In brackets after ≈: the same amount, converted by molar mass. Activity calls are given as the source filed them. The calls are words filed in the database; no cut-off is given here. Peptide text beside a SMILES is read from it.

Key:
[1] = test system: Escherichia coli; experiment: Antibacterial activity against Escherichia coli ATCC 25922 assessed as growth inhibition measured after 18 to 24 hrs by CLSI based broth microdilution method; type: functional; details: time 18-24 hrs
[2] = test system: Pseudomonas aeruginosa; experiment: Antibacterial activity against Pseudomonas aeruginosa ATCC 27853 assessed as growth inhibition measured after 18 to 24 hrs by CLSI based broth microdilution method; type: functional; details: time 18-24 hrs
[3] = test system: Staphylococcus aureus; experiment: Antibacterial activity against Staphylococcus aureus ATCC 25923 assessed as growth inhibition measured after 18 to 24 hrs by CLSI based broth microdilution method; type: functional; details: time 18-24 hrs
[4] = test system: Bacillus subtilis; experiment: Antibacterial activity against Bacillus subtilis ATCC 23857 assessed as growth inhibition measured after 18 to 24 hrs by CLSI based broth microdilution method; type: functional; details: time 18-24 hrs
[5] = test system: Cell membrane; experiment: Induction of cell membrane disruption in Escherichia coli ATCC 25922 assessed as cell morphological damage measured after 30 mins by […] electron microscope analysis; type: subcellular
[6] = Stability of the compound in mouse serum at 10 mM assessed as half life by RP-HPLC analysis; type: ADME, cell-free
[7] = test system: Cell membrane; experiment: Induction of cell membrane disruption in Staphylococcus aureus ATCC 25923 assessed as cell morphological damage measured after 120 mins by […] electron microscope analysis; type: subcellular
[8] = test system: Cell membrane; experiment: Induction of cell membrane disruption in Escherichia coli ATCC 25922 assessed as cell morphological damage measured after 120 mins by […] electron microscope analysis; type: subcellular
[9] = test system: Cell membrane; experiment: Induction of cell membrane disruption in Staphylococcus aureus ATCC 25923 assessed as increase in PI uptake measured after 30 to 120 mins by propidium iodide staining based FACS flow cytometry analysis (reference value: 15%); type: subcellular; details: time 30-120 min
[10] = test system: Cell membrane; experiment: Induction of outer membrane permeabilization to NPN in Escherichia coli ATCC 25922 cells assessed as increase in fluorescence intensity by NPN fluorescent dye based microplate reader assay; type: subcellular
[11] = test system: Cell membrane; experiment: Induction of inner membrane permeabilization in Escherichia coli ML-35 ATCC 43837 assessed as increase in absorbance at 1 to 4 times MIC measured at 420 nm in presence of ONPG by microplate reader assay; type: subcellular; details: DDE = dose-dependent effect
[12] = test system: Cell membrane; experiment: Induction of cytoplasmic membrane depolarization in Escherichia coli ATCC 25922 assessed as increase in fluorescence intensity measured within 1 min by DiSC3-5 dye based fluorescence method; type: subcellular
[13] = test system: Escherichia coli; experiment: Induction of cell membrane damage in Escherichia coli ATCC 25922 assessed as increase in nucleic acid leakage by microplate reader assay; type: functional, organism-based; details: time 0-6 hrs, TDE = time-dependent effect
[14] = test system: Staphylococcus aureus; experiment: Induction of cell membrane damage in Staphylococcus aureus ATCC 25923 assessed as increase in nucleic acid leakage by microplate reader assay; type: functional, organism-based; details: time 0-6 hrs, TDE = time-dependent effect
[15] = test system: Staphylococcus aureus; experiment: Antibacterial activity against Staphylococcus aureus ATCC 25923 assessed as resistance development measured after 15 passages at sub-MIC concentration by resistance development assay; type: functional, organism-based
[16] = test system: Escherichia coli; experiment: Antibacterial activity against Escherichia coli ATCC 25922 assessed as resistance development measured after 15 passages at sub-MIC concentration by resistance development assay; type: functional, organism-based
[17] = test system: Staphylococcus aureus; experiment: Antibacterial activity against Staphylococcus aureus ATCC 25923 assessed as fractional inhibitory concentration index in presence of vancomycin by checkerboard assay; type: functional
[18] = test system: Staphylococcus aureus; experiment: Antibacterial activity against Staphylococcus aureus ATCC 25923 assessed as fractional inhibitory concentration index in presence of kanamycin by checkerboard assay; type: functional
[19] = test system: Staphylococcus aureus; experiment: Antibacterial activity against Staphylococcus aureus ATCC 25923 assessed as fractional inhibitory concentration index in presence of gentamicin by checkerboard assay; type: functional
[20] = test system: Staphylococcus aureus; experiment: Antibacterial activity against rifampin resistant Staphylococcus aureus ATCC 25923 assessed as fractional inhibitory concentration index in presence of rifampin by checkerboard assay; type: functional
[21] = test system: Staphylococcus aureus; experiment: Antibacterial activity against rifampin resistant Staphylococcus aureus ATCC 25923 assessed as fractional inhibitory concentration index in presence of vancomycin by checkerboard assay; type: functional
[22] = test system: Staphylococcus aureus; experiment: Antibacterial activity against rifampin resistant Staphylococcus aureus ATCC 25923 assessed as fractional inhibitory concentration index in presence of kanamycin by checkerboard assay; type: functional
[23] = test system: Staphylococcus aureus; experiment: Antibacterial activity against rifampin resistant Staphylococcus aureus ATCC 25923 assessed as fractional inhibitory concentration index in presence of gentamicin by checkerboard assay; type: functional
[24] = test system: Staphylococcus aureus; experiment: Antibacterial activity against gentamicin resistant Staphylococcus aureus ATCC 25923 assessed as fractional inhibitory concentration index in presence of rifampin by checkerboard assay; type: functional
[25] = test system: Staphylococcus aureus; experiment: Antibacterial activity against gentamicin resistant Staphylococcus aureus ATCC 25923 assessed as fractional inhibitory concentration index in presence of kanamycin by checkerboard assay; type: functional
[26] = test system: Staphylococcus aureus; experiment: Antibacterial activity against gentamicin resistant Staphylococcus aureus ATCC 25923 assessed as fractional inhibitory concentration index in presence of gentamicin by checkerboard assay; type: functional
[27] = test system: Escherichia coli; experiment: Antibacterial activity against Escherichia coli ATCC 25922 assessed as fractional inhibitory concentration index in presence of rifampin by checkerboard assay; type: functional
[28] = test system: Escherichia coli; experiment: Antibacterial activity against Escherichia coli ATCC 25922 assessed as fractional inhibitory concentration index in presence of vancomycin by checkerboard assay; type: functional
[29] = test system: Escherichia coli; experiment: Antibacterial activity against Escherichia coli ATCC 25922 assessed as fractional inhibitory concentration index in presence of gentamicin by checkerboard assay; type: functional
[30] = test system: Escherichia coli; experiment: Antibacterial activity against rifampin resistant Escherichia coli ATCC 25922 assessed as fractional inhibitory concentration index in presence of rifampin by checkerboard assay; type: functional
[31] = test system: Escherichia coli; experiment: Antibacterial activity against rifampin resistant Escherichia coli ATCC 25922 assessed as fractional inhibitory concentration index in presence of kanamycin by checkerboard assay; type: functional
[32] = test system: Escherichia coli; experiment: Antibacterial activity against rifampin resistant Escherichia coli ATCC 25922 assessed as fractional inhibitory concentration index in presence of gentamicin by checkerboard assay; type: functional
[33] = test system: Escherichia coli; experiment: Antibacterial activity against gentamicin resistant Escherichia coli ATCC 25922 assessed as fractional inhibitory concentration index in presence of rifampin by checkerboard assay; type: functional
[34] = test system: Escherichia coli; experiment: Antibacterial activity against gentamicin resistant Escherichia coli ATCC 25922 assessed as fractional inhibitory concentration index in presence of kanamycin by checkerboard assay; type: functional
[35] = test system: Escherichia coli; experiment: Antibacterial activity against gentamicin resistant Escherichia coli ATCC 25922 assessed as fractional inhibitory concentration index in presence of gentamicin by checkerboard assay; type: functional
[36] = Acute toxicity in BALB/c mouse assessed as mortality at 80 mg/kg, ip administered as single dose measured for 7 days; type: organism-based; details: BALB/c, in vivo, time 7 day, read-out: Activity
[37] = Acute toxicity in BALB/c mouse assessed as pathological changes in heart at 20 to 80 mg/kg, ip administered as single dose measured for 7 days by H and E staining method; type: organism-based; details: in vivo, 168 h, dose 20-80 mg/kg, time 7 day
[38] = Acute toxicity in BALB/c mouse assessed as pathological changes in liver at 20 to 80 mg/kg, ip administered as single dose measured for 7 days by H and E staining method; type: organism-based; details: in vivo, 168 h, dose 20-80 mg/kg, time 7 day
[39] = Retention time of the compound by RP-HPLC analysis; type: physicochemical

## CC[C@H](C)[C@H](NC(=O)[C@@H]1CCCN1C(=O)[C@H](CC(C)C)NC(=O)[C@@H](N)Cc1ccccc1)C(=O)N[C@H](C(=O)N[C@@H](C)C(=O)N[C@@H](CCCCN)C(=O)N[C@@H](CC(C)C)C(=O)N[C@@H](CC(C)C)C(=O)N[C@@H](CO)C(=O)NCC(=O)N[C@@H](CC(C)C)C(=O)N[C@@H](CC(C)C)C(N)=O)C(C)C (H-FLPIVAKLLSGLL-NH2)
[1]
  MIC: 32 µM (≈ 44.2 µg/mL)
[2]
  MIC: 128 µM (≈ 177 µg/mL)
[3]
  MIC: 4 µM (≈ 5.53 µg/mL)
[4]
  MIC: 4 µM (≈ 5.53 µg/mL)
[5]
  Activity: Active
[6]
  half-life at 10000 µM: 5.55 h
[7]
  Activity: Active
[8]
  Activity: Active
[9]
  Activity: 24.1%
[10]
  Activity: Active
[11]
  Activity: Dde
[12]
  Activity: Active
[13]
  Activity: Tde
[14]
  Activity: Tde
[15]
  Activity: Active
[16]
  Activity: Active
[17]
  fractional inhibitory concentration index (FICI): 1.0625
[18]
  fractional inhibitory concentration index (FICI): 0.75
[19]
  fractional inhibitory concentration index (FICI): 1
[20]
  fractional inhibitory concentration index (FICI): 1
[21]
  fractional inhibitory concentration index (FICI): 0.75
[22]
  fractional inhibitory concentration index (FICI): 0.5625
[23]
  fractional inhibitory concentration index (FICI): 0.5625
[24]
  fractional inhibitory concentration index (FICI): 0.75
[25]
  fractional inhibitory concentration index (FICI): 0.75
[26]
  fractional inhibitory concentration index (FICI): 0.75
[27]
  fractional inhibitory concentration index (FICI): 1.25
[28]
  fractional inhibitory concentration index (FICI): 0.625
[29]
  fractional inhibitory concentration index (FICI): 1
[30]
  fractional inhibitory concentration index (FICI): 1
[31]
  fractional inhibitory concentration index (FICI): 0.625
[32]
  fractional inhibitory concentration index (FICI): 0.625
[33]
  fractional inhibitory concentration index (FICI): 0.625
[34]
  fractional inhibitory concentration index (FICI): 1
[35]
  fractional inhibitory concentration index (FICI): 1
[36]
  mortality at 168 h: 100%
[37]
  Activity: Non-Toxic
[38]
  Activity: Non-Toxic
[39]
  Retention_time: 19.445 min
